Assay [1] concerns the target T1, CXCR2 (Homo sapiens, UniProt P25025).
T1 construct: recombinant CXCR2 reconstituted in detergent buffer containing lipids
T1 sequence (P25025 1-360): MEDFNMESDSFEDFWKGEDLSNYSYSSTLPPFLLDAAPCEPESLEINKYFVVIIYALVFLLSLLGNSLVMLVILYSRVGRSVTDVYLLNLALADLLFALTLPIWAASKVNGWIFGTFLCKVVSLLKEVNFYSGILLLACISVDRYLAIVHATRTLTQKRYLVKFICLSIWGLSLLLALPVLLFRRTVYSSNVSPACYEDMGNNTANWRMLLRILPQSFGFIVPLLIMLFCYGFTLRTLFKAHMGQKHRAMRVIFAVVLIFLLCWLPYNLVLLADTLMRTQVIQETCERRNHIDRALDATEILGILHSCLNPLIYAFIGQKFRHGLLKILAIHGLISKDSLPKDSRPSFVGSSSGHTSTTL
As to the kind of experiment: fluorescent conformational probe (λmax shift) kinetics on recombinant CXCR2, SX-682 […] after CXCL8 […]. Format: biochemical.

Assay [2] addresses T1, CXCR2. As to the kind of experiment: fluorescent conformational probe (λmax shift) on recombinant reconstituted CXCR2, dose response and kinetics. The assay is classed as binding.

With `O=C(Nc1ccc(F)cc1)c1cnc(SCc2cc(OC(F)(F)F)ccc2B(O)O)nc1` [SX-682], the “fluorescent conformational probe (λmax shift) kinetics on recombinant CXCR2, SX-” value on CXCR2 [1] is “Unlike RCT001, SX-682 inhibited CXCL8-induced pocket opening of CXCR2 (Fig. S3c), firmly establishing it as a standard CXCR2 antagonist”.
As a reminder, the EC50 is the midpoint of the concentration-response curve. As for `O=C(Nc1cc(Cl)cc(Cl)c1)Nc1nc2ccc([N+](=O)[O-])cc2s1` [RCT001, 1-(3,5-dichlorophenyl)-3-(6-nitrobenzo[d]thiazol-2-yl) urea], the concentration for a half-maximal effect (EC50) at CXCR2 [2] stood at 42.7 nM.

The values above are taken from paper PMC10949812, “Unveiling CXCR2 as a promising therapeutic target in renal cell carcinoma: exploring the immunotherapeutic paradigm shift through its inhibition by RCT001” (Journal of Experimental & Clinical Cancer Research : CR, 2024).
